In test [1] the target is T1, Ephrin type-A receptor 1 (Homo sapiens) (UniProt P21709).
T1 sequence (whole entry): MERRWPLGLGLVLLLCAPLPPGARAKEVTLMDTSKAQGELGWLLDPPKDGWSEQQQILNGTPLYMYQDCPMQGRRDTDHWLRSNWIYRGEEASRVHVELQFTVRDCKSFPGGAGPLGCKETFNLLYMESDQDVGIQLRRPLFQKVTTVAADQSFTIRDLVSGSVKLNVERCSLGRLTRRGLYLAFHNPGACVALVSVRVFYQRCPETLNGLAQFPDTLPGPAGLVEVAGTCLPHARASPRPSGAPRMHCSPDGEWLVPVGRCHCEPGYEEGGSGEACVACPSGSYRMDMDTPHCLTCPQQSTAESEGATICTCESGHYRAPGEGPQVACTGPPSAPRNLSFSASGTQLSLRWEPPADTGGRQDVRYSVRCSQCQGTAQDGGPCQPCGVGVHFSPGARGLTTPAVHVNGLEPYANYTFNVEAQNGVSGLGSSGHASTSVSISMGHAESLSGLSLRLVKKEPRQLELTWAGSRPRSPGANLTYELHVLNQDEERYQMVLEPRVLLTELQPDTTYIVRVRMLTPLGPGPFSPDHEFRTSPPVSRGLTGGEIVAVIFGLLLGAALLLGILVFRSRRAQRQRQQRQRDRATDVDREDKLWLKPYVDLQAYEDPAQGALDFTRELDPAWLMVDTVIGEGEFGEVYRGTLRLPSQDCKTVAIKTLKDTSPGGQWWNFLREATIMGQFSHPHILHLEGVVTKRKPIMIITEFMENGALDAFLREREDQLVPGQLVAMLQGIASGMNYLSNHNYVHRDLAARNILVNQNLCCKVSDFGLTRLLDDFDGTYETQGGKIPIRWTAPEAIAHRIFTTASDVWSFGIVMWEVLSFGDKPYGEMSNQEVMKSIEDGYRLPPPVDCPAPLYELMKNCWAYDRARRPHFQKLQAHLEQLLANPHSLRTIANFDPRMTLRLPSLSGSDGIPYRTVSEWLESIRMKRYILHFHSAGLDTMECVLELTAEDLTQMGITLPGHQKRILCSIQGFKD
The test can be described thus: Selectivity interaction (SelectScreen profiling (Invitrogen)) EUB0000607a EPHA1. The settings on record: at 2 µM.

Test [2] concerns the target High affinity nerve growth factor receptor (Homo sapiens, UniProt P04629). The test can be described thus: Selectivity interaction (KinomeScan (DiscoverX)) EUB0000666a NTRK1. The settings on record: at 10 µM.
Test [3] deals with Calcium/calmodulin-dependent protein kinase type 1D (Homo sapiens) (UniProt Q8IU85). Put plainly: Selectivity interaction (Kinase panel (DSF assay)) EUB0001558a CAMK1D. Background: In DSF a fluorescence change marks the thermal transition of the protein.
Sequence of Calcium/calmodulin-dependent protein kinase type 1D (Homo sapiens) (Q8IU85 whole entry, looked up): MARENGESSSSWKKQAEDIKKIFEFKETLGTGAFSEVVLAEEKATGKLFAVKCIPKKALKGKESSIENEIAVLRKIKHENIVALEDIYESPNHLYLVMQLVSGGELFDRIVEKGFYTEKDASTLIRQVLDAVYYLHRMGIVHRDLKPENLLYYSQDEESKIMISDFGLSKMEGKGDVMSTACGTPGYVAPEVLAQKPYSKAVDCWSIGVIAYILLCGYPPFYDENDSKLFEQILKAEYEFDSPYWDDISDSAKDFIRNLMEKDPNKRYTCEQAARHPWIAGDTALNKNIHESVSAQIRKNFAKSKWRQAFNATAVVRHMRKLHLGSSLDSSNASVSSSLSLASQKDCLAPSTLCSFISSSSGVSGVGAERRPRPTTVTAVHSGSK
Test [4] has as its target T2, Serine/threonine-protein kinase Sgk3 (Homo sapiens) (UniProt Q96BR1).
T2 sequence (whole entry): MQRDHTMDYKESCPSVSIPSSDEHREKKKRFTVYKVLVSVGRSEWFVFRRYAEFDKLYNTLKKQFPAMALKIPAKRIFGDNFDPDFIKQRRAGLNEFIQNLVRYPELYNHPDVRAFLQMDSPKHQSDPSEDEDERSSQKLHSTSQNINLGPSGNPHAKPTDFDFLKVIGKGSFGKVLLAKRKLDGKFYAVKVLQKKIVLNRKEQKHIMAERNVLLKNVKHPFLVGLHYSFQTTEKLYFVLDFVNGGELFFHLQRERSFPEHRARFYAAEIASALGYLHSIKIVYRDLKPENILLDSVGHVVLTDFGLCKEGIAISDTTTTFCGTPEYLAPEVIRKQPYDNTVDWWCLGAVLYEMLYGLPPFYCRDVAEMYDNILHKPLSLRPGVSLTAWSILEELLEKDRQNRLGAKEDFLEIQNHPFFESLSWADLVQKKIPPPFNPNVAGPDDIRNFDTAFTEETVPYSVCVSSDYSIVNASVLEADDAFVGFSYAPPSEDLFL
Put plainly: Selectivity interaction (KinomeScan (DiscoverX)) EUB0001079a SGK3. The settings on record: at 1 µM.

The target of test [5] is T3, Serine/threonine-protein kinase Nek8 (Homo sapiens) (UniProt Q86SG6).
T3 sequence (whole entry): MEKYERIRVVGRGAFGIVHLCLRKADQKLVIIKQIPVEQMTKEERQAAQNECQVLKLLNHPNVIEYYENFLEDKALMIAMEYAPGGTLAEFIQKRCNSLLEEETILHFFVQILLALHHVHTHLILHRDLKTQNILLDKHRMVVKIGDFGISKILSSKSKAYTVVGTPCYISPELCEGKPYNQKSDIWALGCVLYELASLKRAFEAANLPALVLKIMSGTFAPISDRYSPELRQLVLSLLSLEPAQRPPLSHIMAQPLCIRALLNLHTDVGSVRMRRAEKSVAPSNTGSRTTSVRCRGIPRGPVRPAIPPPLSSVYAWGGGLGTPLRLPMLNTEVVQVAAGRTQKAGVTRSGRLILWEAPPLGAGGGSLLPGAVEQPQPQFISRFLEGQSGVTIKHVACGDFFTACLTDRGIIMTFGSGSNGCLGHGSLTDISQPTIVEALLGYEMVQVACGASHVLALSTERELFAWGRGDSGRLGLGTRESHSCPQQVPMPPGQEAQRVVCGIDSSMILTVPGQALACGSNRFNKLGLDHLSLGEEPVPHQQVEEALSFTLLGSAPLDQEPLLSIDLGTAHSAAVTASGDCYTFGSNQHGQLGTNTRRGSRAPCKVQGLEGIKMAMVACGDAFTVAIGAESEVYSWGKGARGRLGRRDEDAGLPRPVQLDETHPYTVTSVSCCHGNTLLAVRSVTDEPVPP
Put plainly: Selectivity interaction (ActivX KiNativ screen (kinase selectivity in THP-1 cell lysates)) EUB0000639a NEK8. The settings on record: lysate. In kind it is subcellular.

Test [6] has as its target T4, Aurora kinase C (Homo sapiens) (UniProt Q9UQB9).
T4 sequence (whole entry): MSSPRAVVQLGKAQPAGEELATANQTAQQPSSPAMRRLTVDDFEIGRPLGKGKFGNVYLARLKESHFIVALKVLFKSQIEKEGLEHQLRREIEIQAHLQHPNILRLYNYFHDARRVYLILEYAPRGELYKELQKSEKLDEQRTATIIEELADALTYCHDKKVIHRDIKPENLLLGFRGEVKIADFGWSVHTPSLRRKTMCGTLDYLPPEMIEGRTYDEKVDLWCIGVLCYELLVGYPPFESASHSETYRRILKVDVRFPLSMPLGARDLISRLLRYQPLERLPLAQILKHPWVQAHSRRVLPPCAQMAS
The following applies: at 10 µM.

Each structure is given as a SMILES string.

Sequence of High affinity nerve growth factor receptor (P04629 33-796 limits assumed): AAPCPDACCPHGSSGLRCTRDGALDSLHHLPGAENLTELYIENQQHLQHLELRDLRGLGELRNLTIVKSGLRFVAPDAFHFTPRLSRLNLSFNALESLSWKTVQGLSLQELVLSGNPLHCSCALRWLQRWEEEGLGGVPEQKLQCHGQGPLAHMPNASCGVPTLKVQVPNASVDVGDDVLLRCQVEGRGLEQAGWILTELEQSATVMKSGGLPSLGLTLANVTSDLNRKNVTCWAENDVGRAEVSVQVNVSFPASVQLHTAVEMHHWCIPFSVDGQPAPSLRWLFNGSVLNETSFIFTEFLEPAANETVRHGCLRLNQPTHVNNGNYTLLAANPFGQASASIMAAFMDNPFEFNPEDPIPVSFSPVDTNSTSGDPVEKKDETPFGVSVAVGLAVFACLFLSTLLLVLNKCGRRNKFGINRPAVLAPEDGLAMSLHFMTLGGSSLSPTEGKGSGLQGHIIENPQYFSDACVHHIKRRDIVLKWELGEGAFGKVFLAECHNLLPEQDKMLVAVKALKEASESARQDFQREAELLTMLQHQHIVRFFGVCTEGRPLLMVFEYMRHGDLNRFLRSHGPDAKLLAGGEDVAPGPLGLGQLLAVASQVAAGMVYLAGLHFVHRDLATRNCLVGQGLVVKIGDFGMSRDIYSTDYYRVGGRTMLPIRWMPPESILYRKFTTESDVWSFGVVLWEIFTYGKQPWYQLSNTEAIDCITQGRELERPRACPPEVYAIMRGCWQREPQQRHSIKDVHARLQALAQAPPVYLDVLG

As for `CNC(=O)Nc1ccc(-c2nc(N3CC4CCC(C3)O4)c3cnn(C4CCC5(CC4)OCCO5)c3n2)cc1`, the % of inhibition in test [1] came to 3%. For the compound `O=C(NOC[C@H](O)CO)c1ccc(F)c(F)c1Nc1ccc(I)cc1F`, the % of control in test [2] is 100%. In the case of `CC(C)(O)[C@H](F)CN1Cc2cc(NC(=O)c3cnn4cccnc34)c(N3CCOCC3)cc2C1=O`, the dTM in test [3] is -0.1 K. For `Nc1cnc(N2CCc3cc(S(=O)(=O)Nc4c(F)cc(Cl)cc4F)cc(N4CCCC4=O)c32)nc1` [TP-020n], the % of control in test [4] was 100%.

On to `CC[C@@H]1[C@H](F)C(=O)N[C@@H]1COc1nccc2cc(C(N)=O)c(OC)cc12` [ZIMLOVISERTIB], for which the % of inhibition was -12.6% in test [5] (at 0.01 µM); 9.8% in test [5] (at 0.04 µM); -2.6% in test [5] (at 0.2 µM); 3.4% in test [5] (at 1 µM); -20.5% in test [5] (at 5 µM). Consider `COCC(=O)NC/C=C/c1ccc2ncnc(Nc3ccc(Oc4ccc(C)nc4)c(C)c3)c2c1` [CP-724714], for which the % of control in test [6] was found to be 67%.

The record behind these values is ChEMBL document CHEMBL5465560, “Selectivity Literature for EUbOPEN Chemogenomic Library” (2024).
